Measured values as given in paper PMC9948168, “Vanillin-Based Indolin-2-one Derivative Bearing a Pyridyl Moiety as a Promising Anti-Breast Cancer Agent via Anti-Estrogenic Activity” (ACS Omega, 2023).

Assays:
Test in all cases: NCI-60 one-dose screening
Type in all cases: cell-based
MOLT-4 = conditions: Homo sapiens, MOLT-4, Leukemias, read-out: GI (%)
Method: (§1) Compounds 5a–c and 6a–o were tested using standard NCI protocols for in vitro activity at the National Cancer Institute (NCI, Bethesda, Maryland, USA), wherein compounds were tested using one single concentration of 10 μM against 60 cell lines of nine different cancer types. […] Excellent activity was observed against a single NSCLC cell line, EKVX, for compounds 5a–c (GIs = 77–86%, Table 1) with no observed activity for indoles with substituted vanillin 6a–o.
(§2) Anticancer activity was tested against 60 cancer cell lines at the NCI, Bethesda, USA. The screening process was done with a single dosage of 10 μM according to NCI protocols published on the NCI website https://dtp.cancer.gov/discovery_development/nci-60/methodology.htm.

OVCAR-5 = conditions: Homo sapiens, OVCAR-5, Ovarian Cancer, read-out: GI (%)
Method: as §1, §2

NCI/ADR-RES = conditions: Homo sapiens, Ovarian Cancer, read-out: GI (%)
Method: as §1, §2

A498 = conditions: Homo sapiens, A498, Renal Cancer, read-out: GI (%)
Method: as §1, §2

SW-620 = conditions: Homo sapiens, SW-620, Colon Cancer, read-out: GI (%)
Method: as §1, §2

NCI-H226 = conditions: Homo sapiens, NCI-H226, Non-Small Cell Lung Cancer, read-out: GI (%)
Method: as §1, §2

786-0 = conditions: Homo sapiens, 786-0, Renal Cancer, read-out: GI (%)
Method: as §1, §2

UO-31 = conditions: Homo sapiens, UO-31, Renal Cancer, read-out: GI (%)
Method: as §1, §2

BT-549 = conditions: Homo sapiens, BT-549, Breast Cancer, read-out: GI (%)
Method: as §1, §2

KM12 = conditions: Homo sapiens, KM12, Colon Cancer, read-out: GI (%)
Method: as §1, §2

SK-MEL-2 = conditions: Homo sapiens, SK-MEL-2, Melanoma, read-out: GI (%)
Method: as §1, §2

A549/ATCC = conditions: Homo sapiens, Non-Small Cell Lung Cancer, read-out: GI (%)
Method: as §1, §2

HCT-15 = conditions: Homo sapiens, HCT-15, Colon Cancer, read-out: GI (%)
Method: as §1, §2

IGROV1 = conditions: Homo sapiens, IGROV-1, IGROV1, Ovarian Cancer, read-out: GI (%)
Method: as §1, §2

NCI-H322M = conditions: Homo sapiens, Non-Small Cell Lung Cancer, read-out: GI (%)
Method: as §1, §2

K-562 = conditions: Homo sapiens, K562, K-562, Leukemias, read-out: GI (%)
Method: as §1, §2

SF-295 = conditions: Homo sapiens, SF-295, CNS Cancer, read-out: GI (%)
Method: as §1, §2

U251 = conditions: Homo sapiens, U-251, U251, CNS Cancer, read-out: GI (%)
Method: as §1, §2

ACHN = conditions: Homo sapiens, Renal Cancer, read-out: GI (%)
Method: as §1, §2

TK-10 = conditions: Homo sapiens, TK-10, Renal Cancer, read-out: GI (%)
Method: as §1, §2

HCT-116 = conditions: Homo sapiens, HCT-116, Colon Cancer, read-out: GI (%)
Method: as §1, §2

SF-539 = conditions: Homo sapiens, SF-539, CNS Cancer, read-out: GI (%)
Method: as §1, §2

DU-145 = conditions: Homo sapiens, DU-145, Prostate Cancer, read-out: GI (%)
Method: as §1, §2

NCI-H23 = conditions: Homo sapiens, NCI-H23, Non-Small Cell Lung Cancer, read-out: GI (%)
Method: as §1, §2

SR = conditions: Homo sapiens, Leukemias, read-out: GI (%)
Method: as §1, §2

OVCAR-3 = conditions: Homo sapiens, OVCAR-3, 10 μM; OVCAR-3, Ovarian Cancer; read-out: GI (%)
Method: as §1, §2

HT29 = conditions: Homo sapiens, HT-29, HT29, Colon Cancer, read-out: GI (%)
Method: as §1, §2

COLO 205 = conditions: Homo sapiens, COLO 205, Colon Cancer, read-out: GI (%)
Method: as §1, §2

NCI-H460 = conditions: Homo sapiens, NCI-H460, Non-Small Cell Lung Cancer, read-out: GI (%)
Method: as §1, §2

MDA-MB-435 = conditions: Homo sapiens, MDA-MB-435, Melanoma, read-out: GI (%)
Method: as §1, §2

LOX IMVI = conditions: Homo sapiens, Melanoma, read-out: GI (%)
Method: as §1, §2

MALME-3M = conditions: Homo sapiens, Melanoma, read-out: GI (%)
Method: as §1, §2

HOP-62 = conditions: Homo sapiens, HOP-62, Non-Small Cell Lung Cancer, read-out: GI (%)
Method: as §1, §2

EKVX = conditions: Homo sapiens, Non-Small Cell Lung Cancer, read-out: GI (%)
Method: as §1, §2

UACC-257 = conditions: Homo sapiens, UACC-257, Melanoma, read-out: GI (%)
Method: as §1, §2

OVCAR-4 = conditions: Homo sapiens, OVCAR-4, 10 μM; OVCAR-4, Ovarian Cancer; read-out: GI (%)
Method: as §1, §2

SMILES | inhibition at 10 µM (MOLT-4) [%] | inhibition at 10 µM (OVCAR-5) [%] | inhibition at 10 µM (NCI/ADR-RES) [%] | inhibition at 10 µM (A498) [%] | inhibition at 10 µM (SW-620) [%] | inhibition at 10 µM (NCI-H226) [%] | inhibition at 10 µM (786-0) [%] | inhibition at 10 µM (UO-31) [%] | inhibition at 10 µM (BT-549) [%] | inhibition at 10 µM (KM12) [%] | inhibition at 10 µM (SK-MEL-2) [%] | inhibition at 10 µM (A549/ATCC) [%] | inhibition at 10 µM (HCT-15) [%] | inhibition at 10 µM (IGROV1) [%] | inhibition at 10 µM (NCI-H322M) [%] | inhibition at 10 µM (K-562) [%] | inhibition at 10 µM (SF-295) [%] | inhibition at 10 µM (U251) [%] | inhibition at 10 µM (ACHN) [%] | inhibition at 10 µM (TK-10) [%] | other results
COc1cc(/C=C2/C(=O)Nc3ccccc32)ccc1OCc1ccc(F)cc1 [6c] | 3.23 | -6.64 | -2.39 | 10.8 | -5.55 | -0.42 | -6.73 | 15.3 | -15.7 | -0.58 | -7.35 | -7.83 | -1.14 | -1.33 | -3.28 | -3.95 | -1.97 | -6.26 | -2.09 | -29.6 | inhibition at 10 µM (HCT-116): -6.72%; inhibition at 10 µM (SF-539): -2.09%; inhibition at 10 µM (DU-145): -6.42%; inhibition at 10 µM (NCI-H23): 1.03%; inhibition at 10 µM (SR): 9.9%; inhibition at 10 µM (OVCAR-3): -16.7%; inhibition at 10 µM (HT29): -4.59%; inhibition at 10 µM (COLO 205): -11.2%; inhibition at 10 µM (NCI-H460): 13.6%; inhibition at 10 µM (MDA-MB-435): -3.45%; inhibition at 10 µM (LOX IMVI): 2.75%; inhibition at 10 µM (MALME-3M): 0.21%; inhibition at 10 µM (HOP-62): -0.35%; inhibition at 10 µM (EKVX): 2.35%; inhibition at 10 µM (UACC-257): -18.2%; inhibition at 10 µM (OVCAR-4): -2.67%
COc1ccc(COc2ccc(/C=C3/C(=O)Nc4ccccc43)cc2OC)cc1 [6d] | -1.85 | 0.08 | -6.16 | -10.3 | 0.87 | -3.18 | -4.67 | 19.6 | 7.88 | -3.98 | -8.22 | -9.19 | -4.57 | -7.35 | -5.76 | -0.85 | -3.32 | -9.05 | 7.61 | -13.4 | inhibition at 10 µM (HCT-116): -8.46%; inhibition at 10 µM (SF-539): 4.08%; inhibition at 10 µM (DU-145): -8.53%; inhibition at 10 µM (NCI-H23): -2.85%; inhibition at 10 µM (SR): -1.92%; inhibition at 10 µM (OVCAR-3): -14.7%; inhibition at 10 µM (HT29): -7.81%; inhibition at 10 µM (COLO 205): -22.9%; inhibition at 10 µM (NCI-H460): -2.81%; inhibition at 10 µM (MDA-MB-435): -6.21%; inhibition at 10 µM (LOX IMVI): 3.43%; inhibition at 10 µM (MALME-3M): 0.29%; inhibition at 10 µM (HOP-62): -0.03%; inhibition at 10 µM (EKVX): 0.23%; inhibition at 10 µM (UACC-257): -15.9%; inhibition at 10 µM (OVCAR-4): 0.17%
COc1cc(/C=C2/C(=O)Nc3ccc(Cl)cc32)ccc1OCc1ccccc1 [6f] | 3.2 | -0.26 | -2.56 | -2.34 | 4.03 | 1.24 | -3.53 | 22.4 | -5.93 | -0.66 | -0.03 | -0.72 | 4.2 | 1.82 | 2.56 | -8.73 | -0.63 | 2.36 | 3.68 | -15.1 | inhibition at 10 µM (HCT-116): -13%; inhibition at 10 µM (SF-539): 2.76%; inhibition at 10 µM (DU-145): -11.6%; inhibition at 10 µM (NCI-H23): 1.55%; inhibition at 10 µM (SR): -9.47%; inhibition at 10 µM (OVCAR-3): -6.72%; inhibition at 10 µM (HT29): -2.07%; inhibition at 10 µM (COLO 205): -7.79%; inhibition at 10 µM (NCI-H460): -1.96%; inhibition at 10 µM (MDA-MB-435): -1.21%; inhibition at 10 µM (LOX IMVI): -3.97%; inhibition at 10 µM (MALME-3M): -1.28%; inhibition at 10 µM (HOP-62): 6.15%; inhibition at 10 µM (EKVX): 4.35%; inhibition at 10 µM (UACC-257): -3.74%; inhibition at 10 µM (OVCAR-4): -6.85%
COc1ccc(COc2ccc(/C=C3/C(=O)Nc4ccc(Cl)cc43)cc2OC)cc1 [6i] | 4.03 | 1.66 | 3.06 | -6.49 | 6.24 | 3.61 | 0.79 | 30.9 | -13.3 | 0.58 | -5.26 | -1.42 | 3.59 | 5.39 | 7.01 | 6.52 | -0.88 | -2.19 | 5.13 | -18.4 | inhibition at 10 µM (HCT-116): 4.18%; inhibition at 10 µM (SF-539): -1.4%; inhibition at 10 µM (DU-145): -12.1%; inhibition at 10 µM (NCI-H23): 3.99%; inhibition at 10 µM (SR): 24.1%; inhibition at 10 µM (OVCAR-3): -1.86%; inhibition at 10 µM (HT29): -8.29%; inhibition at 10 µM (COLO 205): -10.1%; inhibition at 10 µM (NCI-H460): -2%; inhibition at 10 µM (MDA-MB-435): -5.33%; inhibition at 10 µM (LOX IMVI): 5.6%; inhibition at 10 µM (MALME-3M): 2.07%; inhibition at 10 µM (HOP-62): 3.08%; inhibition at 10 µM (EKVX): 11.4%; inhibition at 10 µM (UACC-257): -2.09%; inhibition at 10 µM (OVCAR-4): -0.39%
COc1cc(/C=C2/C(=O)Nc3cc(Cl)ccc32)ccc1OCc1ccccc1 [6k] | 4.75 | 3.05 | -3.53 | -15.1 | 2.54 | 1.98 | -8.46 | 16.2 | 16.8 | 1.29 | -5.05 | -8.61 | 6.47 | 23.4 | 0.99 | 3.86 | -1.02 | -7.73 | 7.71 | -55.6 | inhibition at 10 µM (HCT-116): -2.15%; inhibition at 10 µM (SF-539): 5.85%; inhibition at 10 µM (DU-145): -4.08%; inhibition at 10 µM (NCI-H23): 2.27%; inhibition at 10 µM (SR): 6.78%; inhibition at 10 µM (OVCAR-3): -3.45%; inhibition at 10 µM (HT29): -1.24%; inhibition at 10 µM (COLO 205): -16.6%; inhibition at 10 µM (NCI-H460): 1.83%; inhibition at 10 µM (MDA-MB-435): -4.45%; inhibition at 10 µM (LOX IMVI): 16.1%; inhibition at 10 µM (MALME-3M): 4.05%; inhibition at 10 µM (HOP-62): 0.16%; inhibition at 10 µM (EKVX): 17.2%; inhibition at 10 µM (UACC-257): -10.4%; inhibition at 10 µM (OVCAR-4): 10.4%
